The subject of data set [1] is A20-HA lymphoma cells co-incubated with CD8+ T-cells isolated from CL4-HA transgenic animals. Briefly: Co-culture assay of A20-HA lymphoma cells with CD8+ T-cells. Type of data set: cell-based, mouse. To be noted: A20-HA cells pre-treated with 30uM inhibitor; for over-activation of CD8+ T-cells: 72h co-incubation. As for the experimental part: Proteins were extracted using a buffer containing 20 mM Tris-HCl (pH 7.5) 150 mM NaCl, 1 mM Na2EDTA 1 mM EGTA 1% NP-40 1% sodium deoxycholate 2.5 mM sodium pyrophosphate 1 mM β-glycerophosphate 1 mM Na3VO4 1 µg/ml leupeptin) supplemented with protease (Sigma Aldrich, cat #11836153001) and phosphatases (Roche, cat #04906837001) inhibitors and quantified with the Bradford reagent (Bio-Rad, cat #5000006). 20-30 µg of proteins were resolved on SDS-PAGE and transferred at 20V for 20-30 minutes to Immobilon-P-membranes (Millipore). After blocking in 5% milk (Applichem, cat #A0830) in PBS-0.1%Tween (Fisher scientific, cat #BP337), membranes were incubated overnight in 5% milk in PBS-Tween with the following primary antibodies: goat anti-human Cathepsin S (RD, cat #AF1183, 1:2000), Cathepsin B (D1C7Y) XP® Rabbit (Cell signaling mAb #31718), rabbit anti-mouse Cathepsin S (Sino Biological, cat #50769-R054, 1:1000), mouse anti-human CD74 (PIN.1, StressMarq, cat #SMC-116, diluted 1:1000), rat-anti-mouse CD74 (clone ln-1, BD biosciences, cat #555317, 1:1000), rabbit anti-his-Tag (Cell Signaling, cat #D3I10, dilute 1:1000), mouse anti-human alpha-Tubulin (clone B-5-1-2, Sigma Aldrich, cat#T6072, diluted 1:10000), anti-beta actin (clone 8H10D10, ThermoFisher Scientific, cat# MA5-15452, 1:1000).
At the end of the B-cell/T cell co-culture, […] and analyzed for the proliferation of T cells stained with an Pe-Cy7 anti-mouse CD8a antibody (Clone 53-6.7, BD Biosciences, San Jose, CA, USA, cat #552877) or PercP efluor 710 rat anti-CD4 antibody (bd bioscience, cat#564379) by quantifying CellTrace violet proliferation peaks using flow cytometry. In parallel, B cell concentration was measured using cell-counting flow-cytometer (Guava easyCyte). A20-HA lymphoma cells wild-type, Ctss knock-out, B2m knock-out, and Pdl1 knock-out expressing HA as antigen were pre-treated with 30uM E64 (Apexbio Technology LLC (cat #A2576), 30uM Z-FL-COCHO (Anawa trading SA, cat #A13502-5), 30uM LY300328 (Lucerna Chem AG, cat # MCE-HY-15533) or-directly co-incubated for 72h with CellTrace violet stained CD8+ T-cells isolated from CL4-HA transgenic animals. At the end of the B-cell/T cell co-culture, cells were collected, stained with PE-Cy7 anti-mouse CD8a antibody (Clone 53-6.7, BD Biosciences, San Jose, CA, USA cat #552877) and analyzed for the proliferation of T cells stained by quantifying CellTrace violet proliferation peaks using flow cytometry. In parallel, B cell concentration was measured using cell-counting flow-cytometer (Guava easyCyte).

For a further data set, the target named is T1, cathepsin S (CTSS) (Homo sapiens, UniProt P25774).
T1 construct: made in house; host or cells: HEK293
T1 sequence (P25774 115-331): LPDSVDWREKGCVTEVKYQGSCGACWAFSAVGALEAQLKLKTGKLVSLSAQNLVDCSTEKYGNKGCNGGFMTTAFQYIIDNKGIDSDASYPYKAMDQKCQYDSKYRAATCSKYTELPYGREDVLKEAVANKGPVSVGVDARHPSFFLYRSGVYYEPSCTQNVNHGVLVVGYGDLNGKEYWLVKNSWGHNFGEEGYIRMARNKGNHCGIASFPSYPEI
Description: FRET assay for cathepsin S (inhibitor screen and substrate cleavage). Type of data set: biochemical. To be noted: for inhibition of cathepsin S activity (MCA fluorescent emission): CTSS, peptide of SEQ ID NO: 1 as substrate, Fig. 3; for cleavage by CTSS as substrate: FRET, CTSS-His-WT, SEQ ID NO: 1 compared with SEQ ID NO: 4. The method, then: CTSS-His WT and Y132D were diluted to 10 µg/mL in Assay buffer (50 mM NaOAc, 5 mM DTT, 250 mM NaCl), at pH 4.5 and incubated at 37°C for 90 minutes to allow auto-activation. The proteins were then diluted to 0.5 ng/µl in Assay buffer and plated in 96-well plates (50 µl/well). The peptides of SEQ ID NO: 1, SEQ ID NO: 2, SEQ ID NO: 3, SEQ ID NO: 4 and SEQ ID NO: 5 were synthesized and diluted to 20 µM in a buffer (50 mM NaOAc, 5 mM DTT, 250 mM NaCl) then added to the activated CTSS (50 µl/well). 50 µM E64 (Selleckchem, cat #S7379) was added to CTSS prior to the substrate as positive control. A commercially available CTSS purified protein (R&D systems, cat #1183-CY-010) was in addition used as control. MCA emission was measured with SpectraMax iD3 (Molecular Devices) in kinetic mode for 20 minutes (excitation: 330 nm, emission: 390 nm).
The FRET assay was miniaturized to performed the screen in […] and each molecule was tested in duplicates. 10 µg/ml of CTSS was incubated in the activation buffer for 105 minutes to allow a complete activation of the enzyme. Then, the enzyme was diluted at 0.5 µg/ml and dispensed in […] pre-loaded with the small molecule candidates using an automatic dispenser (Biotek Dispenser multiflo). The plates were incubated for 10 minutes at room temperature and then 20 µM of substrate was added in each well and acquired the fluorescence signal (excitation: 330 nm, emission: 390 nm) after 90 minutes. For each plate, were included untreated wells as negative control and E64 was used (150 µM) as positive control. To assess the quality of the screen, a Z'-score for each plate was calculated and all plates had Z' score > 0.6. To identify possible hits, the average value and standard deviation of the positive and negative control were calculated. The upper and lower limit values for each plate were calculated considering plus/minus three times the standard deviation to the average and only compounds that in both independent duplicate scored below the positive control threshold were retained.

The next data set addresses cathepsin H (CTSH) (Homo sapiens, UniProt P09668). Briefly: FRET specificity assay for cathepsin H. Type of data set: biochemical. As to conditions: peptide of SEQ ID NO: 2 as substrate, Fig. 5. As for the experimental part:
First, specific conditions to activate the enzymes were used as follows: CTSB was diluted in active buffer (MES 25 mM, DTT 5 mM, pH 5) at 10 µg/ml, incubated at 37°C for 2h and then diluted to 1 µg/ml in assay buffer (MES 25 mM, pH 5) for the FRET assay. CTSH was diluted in a specific active buffer (MES 50 mM, CaCl2 10 mM, NaCl 150 mM, pH 6.5) 200 µg/ml. In addition, as co-stimulatory activator thermolysin diluted at 100 µg/ml in active buffer was used mixed with equal volume of the diluted CTSH. The solution was incubated for 1h room temperature and then we added 2 mM Phosporamidon diluted in assay buffer (MES 50 mM, pH 6,5) and incubate the mix for 10 minutes at room temperature. Lastly, an equal volume of assay buffer containing 20 mM DTT was added and the mixture incubated 5 minutes at room temperature. For the FRET assay, diluted both CTSH, and CTSB at 1 µg/ml were used in their specific assay buffer and incubated with a specific substrate. […] Fluorescence emission was measured with SpectraMax iD3 (Molecular Devices) in kinetic mode over three hours (excitation: 330 nm, emission: 390 nm).

Data set [2] deals with human lymphoma cancer cell lines (Karpas-422 and DoHH2). Briefly: Cell viability assay in lymphoma cell lines. Type of data set: cell-based. To be noted: for toxicity / cell survival: Karpas-422 and DoHH2, 48h or 72h, increasing doses up to 50 µM. As for the experimental part:
Two human lymphoma cell lines DoHH2 and Karpas-422 and one murine lymphoma cell line A20 were treated with increasing concentration of compounds (1), (5) and (9). 24 hours before treatment cells were diluted at 2^∗10^5 cells/ml. Cell number was measured at 48h and 72h after treatment using automatic cell counting of Millipore Guava. The values were normalized to cells treated with the same dose of vehicle (DMSO).
Next, the toxicity of these inhibitors on two human lymphoma cancer cell lines (Karpas-422 and DoHH2). The cells were treated with the small molecules for 48h or 72h at increasing doses (50 µM, 10 µM, µM, 0.1 µM). […] Conversely, compound (9) progressively decreases cell proliferation of up to 50% after 72 hours of exposure to the 0. 1 µM of the compound or less than 30% in cells treated with 10 or 50 µM.

The target in a further data set is cathepsin B (CTSB) (Homo sapiens, UniProt P07858). Description: FRET specificity assay for cathepsin B. Type of data set: biochemical. As to conditions: for inhibition of Cathepsin B activity (MCA fluorescent emission): CTSB, peptide of SEQ ID NO: 5 as substrate, Fig. 4. As for the experimental part: First, specific conditions to activate the enzymes were used as follows: CTSB was diluted in active buffer (MES 25 mM, DTT 5 mM, pH 5) at 10 µg/ml, incubated at 37°C for 2h and then diluted to 1 µg/ml in assay buffer (MES 25 mM, pH 5) for the FRET assay. CTSH was diluted in a specific active buffer (MES 50 mM, CaCl2 10 mM, NaCl 150 mM, pH 6.5) 200 µg/ml. In addition, as co-stimulatory activator thermolysin diluted at 100 µg/ml in active buffer was used mixed with equal volume of the diluted CTSH. The solution was incubated for 1h room temperature and then we added 2 mM Phosporamidon diluted in assay buffer (MES 50 mM, pH 6,5) and incubate the mix for 10 minutes at room temperature. Lastly, an equal volume of assay buffer containing 20 mM DTT was added and the mixture incubated 5 minutes at room temperature. For the FRET assay, diluted both CTSH, and CTSB at 1 µg/ml were used in their specific assay buffer and incubated with a specific substrate. As substrate, the following peptides were used: peptide of SEQ ID NO: 5 (KPPKPVSD) in CTSB FRET assays and SEQ ID NO: 1 (KLRMKLPKP) in CTSH FRET assays and tested increasing doses of candidate inhibitors (20 µM, 10 µM, 1 µM, 0.1 µM). Fluorescence emission was measured with SpectraMax iD3 (Molecular Devices) in kinetic mode over three hours (excitation: 330 nm, emission: 390 nm).

Chain of cathepsin H (CTSH) (P09668 116-335 limits assumed, other chains not shown): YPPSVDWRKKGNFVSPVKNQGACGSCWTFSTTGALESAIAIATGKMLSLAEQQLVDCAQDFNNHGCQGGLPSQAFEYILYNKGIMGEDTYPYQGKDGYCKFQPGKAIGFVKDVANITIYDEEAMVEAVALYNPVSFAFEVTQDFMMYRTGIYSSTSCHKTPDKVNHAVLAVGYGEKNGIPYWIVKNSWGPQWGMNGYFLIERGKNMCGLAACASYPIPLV

With `CC(C)C[C@H](NC(=O)[C@H]1O[C@@H]1C(=O)O)C(=O)NCCCCNC(=N)N` [E64], in data set [1], the “accumulation of the small fragment of CD74, p10” value is reported as “observed” and the “over-activation of CD8+ T-cells” value was “no over-activation”.
As to `O=c1ccc(-c2ccco2)nn1CCNS(=O)(=O)c1ccccc1F` [compound (1), 2-fluoro-N-[2-[3-(2-furanyl)-6-oxo-1(6H)-pyridazinyl]ethyl]-benzenesulfonamide], the “inhibition of cathepsin S activity (MCA fluorescent emission)” value (shortened to “inhibition of cathepsin S activity”) against cathepsin S (CTSS) is on record as “able to inhibit cathepsin S activity”. For the same molecule, the “inhibition of Cathepsin H activity (MCA fluorescent emission)” value (from here on “inhibition of Cathepsin H activity”) against cathepsin H (CTSH) was “not Cathepsin H”. Besides, the “toxicity / cell survival” value in data set [2] is listed as “well tolerated”. In addition, at cathepsin B (CTSB), the “inhibition of Cathepsin B activity (MCA fluorescent emission)” value (“inhibition of Cathepsin B activity” for short) is listed as “not Cathepsin B”.
In the case of `Cc1noc(C)c1CC(=O)NCCn1nc(-c2ccco2)ccc1=O` [compound (5), N-[2-[3-(2-furanyl)-6-oxo-1(6H)-pyridazinyl]ethyl]-3,5-dimethyl-4-isoxazoleacetamide], the “inhibition of cathepsin S activity” value against cathepsin S (CTSS) is “able to inhibit cathepsin S activity”. On cathepsin H (CTSH), the “inhibition of Cathepsin H activity” value is listed as “not Cathepsin H”. Further, the “toxicity / cell survival” value in data set [2] was “well tolerated”. Besides, on cathepsin B (CTSB), the “inhibition of Cathepsin B activity” value is listed as “not Cathepsin B”.
Turning to `Cc1nc(N2CCCC(C(=O)NCc3ccco3)C2)c2c(C)c(C)oc2n1` (stereo not shown) [compound (9), N-(2-furanylmethyl)-1-(2,5,6-trimethylfuro[2,3-d]pyrimidin-4-yl)-3-piperidinecarboxamide], the inhibition at 0.1 µM in data set [2] (Homo sapiens, after 72 hours of exposure to 0.1 µM, read-out: decrease of cell proliferation) is at most 50%.
For `Cc1oc2ncnc(N3CCCC(C(=O)NCCc4ccco4)C3)c2c1C` (stereo not shown) [compound (11), 1-(5,6-dimethylfuro[2,3-d]pyrimidin-4-yl)-N-[2-(2-furanyl)ethyl]-3-piperidinecarboxamide], the “inhibition of cathepsin S activity” value against cathepsin S (CTSS) was “able to inhibit cathepsin S activity”. For the same molecule, on cathepsin H (CTSH), the “inhibition of Cathepsin H activity” value is listed as “not Cathepsin H”. The “inhibition of Cathepsin B activity” value against cathepsin B (CTSB) is on record as “not Cathepsin B”.
Turning to KLRMKLPKD [SEQ ID NO: 2], the “cleavage by CTSS as substrate” value with cathepsin S (CTSS) is “improved cathepsin S substrate”.
The same measure, in the same setting: the same measure for KLRMKLPKP [SEQ ID NO: 1]: “cleaved more efficiently”.
Take KPPKPVSK [SEQ ID NO: 4]: the “substrate for Cathepsin B” value with cathepsin B (CTSB) is given as “good substrate for Cathepsin B”.
Z-FL-COCHO: in data set [1], the “accumulation of the small fragment of CD74, p10” value is recorded as “observed” and the “over-activation of CD8+ T-cells” value is reported as “no over-activation”.

The record behind these values is patent EP3884948A1, “CATHEPSIN INHIBITORS AND USES THEREOF” (Ecole Polytechnique Fédérale de Lausanne (EPFL), priority 2020, dated 2021).
